Measured values from BigSolDB 2.1.

O=C(NC(Cc1cc(=O)[nH]c2ccccc12)C(=O)O)c1ccc(Cl)cc1 (stereo not given)
solubility (mole fraction)
Details	278.15 K	283.15 K	288.15 K	293.15 K	298.15 K	303.15 K	308.15 K	313.15 K	318.15 K
in ethanol	6.26e-05	6.92e-05	7.65e-05	8.61e-05	9.66e-05	0.000107	0.000118	0.000131	0.000143
in isopropanol	2.41e-05	3.02e-05	3.87e-05	4.8e-05	5.92e-05	7.31e-05	8.91e-05	0.000107	0.000129
in n-propanol	4.25e-05	5.08e-05	6e-05	7.03e-05	8.1e-05	9.38e-05	0.000107	0.000123	0.00014
in propylene glycol	0.000182	0.000192	0.000207	0.000225	0.000247	0.000269	0.000293	0.000319	0.00035
in water	3.46e-07	4.26e-07	5.29e-07	6.84e-07	8.68e-07	1.08e-06	1.3e-06	1.56e-06	1.87e-06
